Test results taken from the NIST ThermoML archive (doi:10.1021/je800290k).
Where “and” joins values, the source holds several entries; their conditions need not be identical. Equal values may be shown once.

Conditions: Liquid, Ebulliometric method (Recirculating still)

NCCO [2-aminoethan-1-ol]
Conditions | vapor or sublimation pressure [kPa]
357.46 K | 2.98
362.99 K | 3.98
369.33 K | 5.48
374.29 K | 6.98
378.41 K | 8.47
384.07 K | 10.97
391.14 K | 14.96
398.01 K | 19.97
403.43 K | 24.97
408.19 K | 29.97
415.78 K | 39.98
415.81 K | 39.95
424.61 K | 54.95
429.44 K | 64.95
431.61 K | 69.95
435.61 K | 79.95

CNCCCN [N-methyl-1,3-diaminopropane]
Conditions | vapor or sublimation pressure [kPa]
326.81 K | 3.46
331.62 K | 4.47
337.36 K | 5.97
343.91 K | 7.97
353.78 K | 12.48
365.76 K | 20.47
372.77 K | 27.96
383.53 K | 39.97
397.99 K | 64.98
404.7 K | 79.98
412.5 K | 101.27

CN(CCO)CCO [N-methyldiethanolamine]
Conditions | vapor or sublimation pressure [kPa]
409.69 K | 2.48
413.43 K | 2.98
416.72 K | 3.48
421.96 K | 4.48
426.65 K | 5.48
430.48 K | 6.48
435.5 K | 7.98

O [water]
Conditions | vapor or sublimation pressure
311.63 K | 6.78 kPa
313.24 K | 7.38 kPa
314.99 K | 8.11 kPa
323.11 K | 12.28 kPa
323.14 K | 12.28 kPa
323.15 K | 12.27 kPa
325.47 K | 13.78 kPa
325.61 K | 13.8 kPa
332.76 K | 19.84 kPa
332.85 K | 19.84 kPa
333.13 K | 19.58 kPa
333.17 K | 19.88 kPa and 19.88 kPa
333.18 K | 19.88 kPa and 19.88 kPa
333.19 K | 19.87 kPa
340.41 K | 27.6 kPa
340.44 K | 27.58 kPa
340.47 K | 27.6 kPa
348.8 K | 39.83 kPa
348.84 K | 39.83 kPa
349.91 K | 41.4 kPa
349.94 K | 41.39 kPa
349.97 K | 41.4 kPa
353.14 K | 47.18 kPa and 47.19 kPa
353.15 K | 47.18 kPa
357.02 K | 55.17 kPa
357.07 K | 55.18 kPa
357.08 K | 55.17 kPa
358.87 K | 59.88 kPa
358.92 K | 59.88 kPa
362.55 K | 68.92 kPa
362.59 K | 68.92 kPa
362.8 K | 69 kPa
362.83 K | 69 kPa and 68.98 kPa
362.89 K | 69.83 kPa
362.93 K | 69.83 kPa
367.48 K | 82.79 kPa
367.49 K | 82.79 kPa
367.67 K | 82.79 kPa
367.69 K | 82.79 kPa and 82.78 kPa
371.67 K | 96.51 kPa
371.7 K | 96.51 kPa
371.9 K | 96.47 kPa
371.91 K | 96.58 kPa
372.69 K | 99.28 kPa
372.86 K | 100.59 kPa
372.89 K | 100.59 kPa
373.16 K | 100.98 kPa and 100.98 kPa
